1 compound from PMC13429874, “ABHD2 activity is not required for the non-genomic action of progesterone on human sperm” (Human Reproduction (Oxford, England), 2026) can be followed below.

Test [1] has as its system human sperm. Kind of test: Sperm hyperactivation assay (CASA). It counts as cell-based. To be noted: 10 µM compound, 30 min. The protocol:
Sperm hyperactivation was assessed in human sperm purified by density gradient centrifugation. Semen samples (n = 7) were allowed to liquefy for 15–30 min at 37°C, and up to 2 ml of liquified semen was layered onto a two-step GM501 gradient system (45%/90%; Gynemed; Sierksdorf, Germany) pre-equilibrated at 37°C. Gradients were centrifuged for 20 min at 400 × g (no break). The 90% pellet was collected, washed in SpermActive medium (Gynemed; composition per manufacturer: NaCl, KCl, MgSO4.7H2O, KH2PO4, 1.77 mM CaCl2.2H2O, D(+)-glucose anhydrous, sodium pyruvate, sodium lactate, EDTA, alanyl-glutamine, essential and non-essential amino acids, 25.71 mM NaHCO3, 15 mM HEPES, 5 g/l human serum albumin, 10 mg/l gentamicin, and phenol red), and incubated for at least 2 h at 37°C, 5% CO2.
For compound testing, sperm suspensions with 7.5 × 10^6 sperm/ml in SpermActive were treated with either DMSO (vehicle) or 10 µM test compound. For basal and induced hyperactivation conditions, DMSO or progesterone (3 µM), respectively, was added. Samples were incubated for 30 min at 37°C, 5% CO2, before motility analysis.
Motility was analyzed using a CASA system (CEROSII^TM Animal Motility, software version 1.16; Hamilton Thorne, Beverly, MA, USA), mounted on an Axiolab 5 microscope (Zeiss, Germany), equipped with a TPi-SX Thermal Plate (Tokai Hit; Shizuoka-ken, Japan) and a JAI CM-040-GE CCD camera (JAI; Tokyo, Japan). Leja slides (20 µm chamber depth; Leja Products B.V., Nieuw-Vennep, The Netherlands) were pre-warmed to 37°C, cleaned with lens paper, and loaded by capillary action with 6 µl sperm suspension; capillary correction was set to 1.3. Sperm tracks were recorded at 37°C using a 10× negative-phase objective, acquiring 60 frames at 60 Hz with 4 ms exposure and gain set to 600. For each sample and condition, 300–500 motile sperm from at least 10 non-overlapping fields were analyzed. Hyperactive sperm were identified using the SORT function with the following Boolean argument: VCL > 150 µm/s and LIN < 50% and ALH > 7 µm. For each sample and condition, the percentage of hyperactive sperm was normalized to the percentage of motile sperm, and the mean of two technical duplicates was reported.
Statistical analysis was performed using GraphPad Prism 10 for Windows (version 10.6.1). Data normality was assessed using Shapiro–Wilk test. Differences between basal and induced hyperactivation were evaluated using a paired t-test, with effective pairing confirmed across all comparisons. P < 0.05 was considered statistically significant.

The subject of test [2] is human sperm. Kind of test: Sperm intracellular Ca2+ measurements (Fluo-4). It counts as cell-based. The protocol:
Measurements of the changes in sperm intracellular Ca^2+ concentration ([Ca^2+]i) were performed on motile human sperm purified by swim-up. Semen samples were allowed to liquefy for 15–60 min at 37°C, and 0.5–1 ml liquified semen was layered beneath 4 ml human tubal fluid medium (HTF; 97.8 mM NaCl, 4.69 mM KCl, 0.2 mM MgSO4, 0.37 mM KH2PO4, 2.04 mM CaCl2, 2.78 mM glucose, 0.33 mM sodium pyruvate, 21.4 mM lactic acid, 4 mM NaHCO3, and 21 mM HEPES pH 7.35 adjusted with NaOH) in 50 ml conical tubes. Motile sperm were allowed to swim up into the HTF for 60–90 min at 37°C, collected, washed twice (700 × g, 20 min, 37°C), and resuspended in HTF containing 3 mg/ml HSA at a density of 1 × 10^7 sperm/ml. Changes of [Ca^2+]i in motile human sperm were measured as previously described ([Rennhack et al., 2018]), using a fluorescence plate-reader assay (FLUOstar Omega, BMG LABTECH) with 384-well plates. Swim-up-purified sperm were loaded with Fluo4-AM (5 μM, Thermo Fisher Scientific, Waltham, MA, USA) and Pluronic F-127 (0.05% w/v) for 20 min at 37°C. Excess dye was removed by centrifugation at 700 × g for 5 min, supernatant removal, and resuspension to 5 × 10^6 sperm/ml in HTF.
For recordings, wells of a 384-well plate were filled with 50 μl of the dye-loaded sperm suspension. Fluorescence was excited at 480 nm, and emission was recorded at 520 nm using a plate reader (Fluostar Omega, BMG Labtech). After establishing a baseline for at least 60 s, 25 µl test compound solutions were added and the fluorescence response recorded. After 4 min, 7.5 µl progesterone was added to reach a final concentration of 3 µM, and ensuing changes in fluorescence were recorded. For the analysis of compound-evoked Ca^2+ signal, basal fluorescence (F0) was determined prior to compound addition. For the determination of inhibitory effects of compounds on progesterone-evoked Ca^2+ signals, basal fluorescence (F0) was determined before progesterone addition. The CatSper inhibitor TS150 ([Schierling et al., 2023]) was used as a control. Each compound was tested in technical duplicates across ≥3 biological replicates, using sperm from at least two donors, and performed on at least two separate days.
Data analysis and graphical representation were performed with GraphPad Prism software version 10.6.1 (San Diego, CA, USA). Changes in Fluo-4 fluorescence are depicted as ΔF/F0 (%), i.e. the change in fluorescence (ΔF) relative to the mean basal fluorescence (F0) before application of buffer or compounds/ligands, to correct for intra- and inter-experimental variations in basal fluorescence among individual wells or to correct for compound-evoked changes in fluorescence. Signal amplitudes evoked in the presence of compounds were normalized to the maximal signal amplitude evoked by 3 µM progesterone in the absence of the compound (set to 1) to ease comparisons between experiments.

“Also recorded” adds a separate entry of the source.

For the compound `CC1CCCN(C(=O)c2ccccc2C(=O)c2ccccc2)C1` (stereo not shown) [Compound 4], the “effect on progesterone-induced hyperactivation” value in test [1] (3 µM progesterone) was “not affected”. For the same compound, the “effect on basal hyperactivation” value in test [1] is “No statistically significant differences; also recorded: did not affect”. The “compound-evoked changes in [Ca2+]i” value in test [2] (10 µM compound) is given as “only minuscule changes”. The “effect on progesterone-induced Ca2+ signal (amplitude and waveform)” value in test [2] (compounds 10 µM, TS150 60 µM, progesterone 3 µM) is listed as “similar”.
